PubChem BioAssay (NCI)
“And” between values parts separate entries of the source, which are not always exact repeats. Equal entries are not always repeated.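 Grown in 96-well plates, cells were treated for 48 hours with each compound at five concentrations. Insufficient inhibition: endpoint recorded as highest concentration tested. GI50 = concentration required for 50% inhibition of growth. Definition used: TGI = concentration required for complete inhibition of growth.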 Where a SMILES comes first, the peptide text is derived from it. The star is where a group is joined. Boc = CC(C)(C)OC(=O)*

Columns and labels:
Experiment in all cases: inhibition of tumour cell growth, NCI panel, 48 h
[1] = system: SR leukemia
[2] = system: MCF7 breast
[3] = system: NCI-H226 lung
[4] = system: MOLT-4 leukemia
[5] = system: HL-60(TB) leukemia
[6] = system: OVCAR-8 ovarian
[7] = system: HCC-2998 colon
[8] = system: NCI-H522 lung
[9] = system: M14 melanoma
[10] = system: SK-MEL-28 melanoma

Question: With CC1(C)N=C(N)N=C(N)N1c1ccc(CCCCc2ccc(Cl)c(S(=O)(=O)F)c2)c(Cl)c1 as the compound, how does the GI50 [1] read?
Answer: 0.186 µM

Question: And the TGI [1]?
Answer: 3.36 µM

Question: What about the GI50 [2] of the same compound?
Answer: 0.529 µM

Question: And the TGI [2]?
Answer: 16.9 µM

Question: And the GI50 [3]?
Answer: 4.18 µM

Question: What about the TGI [3] of the same compound?
Answer: 37.6 µM

Question: And the GI50 [4]?
Answer: 0.622 µM

Question: What about the TGI [4] of the same compound?
Answer: 14.8 µM

Question: What about the GI50 [5] of the same compound?
Answer: 0.38 µM

Question: What about the TGI [5] of the same compound?
Answer: 4.1 µM

Question: What about the GI50 [6] of the same compound?
Answer: 0.557 µM

Question: What about the TGI [6] of the same compound?
Answer: 24.5 µM

Question: What about the GI50 [7] of the same compound?
Answer: 0.922 µM

Question: What about the TGI [7] of the same compound?
Answer: 15.1 µM

Question: And the GI50 [8]?
Answer: 0.71 µM

Question: And the TGI [8]?
Answer: 13.3 µM

Question: And the GI50 [9]?
Answer: 0.756 µM

Question: What about the TGI [9] of the same compound?
Answer: > 41.2 µM

Question: And the GI50 [10]?
Answer: 1.96 µM

Question: What about the TGI [10] of the same compound?
Answer: 16.5 µM

Question: How did the GI50 [1] turn out when C[C@H](Nc1cc(Cl)nc2c1cnn2[C@@H]1O[C@H](COP(=O)(O)CP(=O)(O)O)[C@@H](O)[C@H]1O)c1ccccc1F was run?
Answer: > 100 µM

Question: And the TGI [1]?
Answer: > 100 µM

Question: And the GI50 [2]?
Answer: > 100 µM

Question: What about the TGI [2] of the same compound?
Answer: > 100 µM

Question: What about the GI50 [3] of the same compound?
Answer: > 100 µM

Question: And the TGI [3]?
Answer: > 100 µM

Question: What about the GI50 [4] of the same compound?
Answer: > 100 µM

Question: What about the TGI [4] of the same compound?
Answer: > 100 µM

Question: What about the GI50 [5] of the same compound?
Answer: > 100 µM

Question: What about the TGI [5] of the same compound?
Answer: > 100 µM

Question: What about the GI50 [6] of the same compound?
Answer: > 100 µM

Question: And the TGI [6]?
Answer: > 100 µM

Question: What about the GI50 [7] of the same compound?
Answer: > 100 µM

Question: What about the TGI [7] of the same compound?
Answer: > 100 µM

Question: What about the GI50 [8] of the same compound?
Answer: > 100 µM

Question: What about the TGI [8] of the same compound?
Answer: > 100 µM

Question: And the GI50 [9]?
Answer: > 100 µM

Question: And the TGI [9]?
Answer: > 100 µM

Question: And the GI50 [10]?
Answer: > 100 µM

Question: And the TGI [10]?
Answer: > 100 µM

Question: C#Cc1nc(Nc2cc(C)[nH]n2)c2ccccc2n1 was tested. Which GI50 [1] did it give?
Answer: 0.226 µM

Question: And the TGI [1]?
Answer: 0.79 µM

Question: What about the GI50 [2] of the same compound?
Answer: 0.197 µM

Question: And the TGI [2]?
Answer: 1.67 µM

Question: And the GI50 [4]?
Answer: 0.25 µM

Question: What about the TGI [4] of the same compound?
Answer: 0.685 µM

Question: And the GI50 [5]?
Answer: 0.265 µM

Question: What about the TGI [5] of the same compound?
Answer: 0.887 µM

Question: And the GI50 [6]?
Answer: 0.325 µM

Question: What about the TGI [6] of the same compound?
Answer: > 100 µM

Question: What about the GI50 [7] of the same compound?
Answer: 0.216 µM

Question: What about the TGI [7] of the same compound?
Answer: 0.466 µM

Question: And the GI50 [8]?
Answer: 0.476 µM

Question: What about the TGI [8] of the same compound?
Answer: 1.99 µM

Question: What about the GI50 [9] of the same compound?
Answer: 0.232 µM

Question: What about the TGI [9] of the same compound?
Answer: 0.559 µM

Question: What about the GI50 [10] of the same compound?
Answer: 0.363 µM

Question: And the TGI [10]?
Answer: 1.71 µM

Question: How did the GI50 [1] turn out when COC(=O)C(C)NC(=O)C(CCSC)NC(=O)C(Cc1ccccc1)NC(=O)OC(C)(C)C (stereo not drawn) (Boc-Phe-Met-Ala-OMe; configuration not given here) was run?
Answer: 21.4 µg/mL

Question: What about the TGI [1] of the same compound?
Answer: 44.8 µg/mL and > 100 µM

Question: What about the GI50 [2] of the same compound?
Answer: 31.7 µg/mL

Question: And the TGI [2]?
Answer: > 100 µM

Question: And the TGI [3]?
Answer: > 100 µM

Question: What about the GI50 [4] of the same compound?
Answer: 18.6 µg/mL

Question: And the TGI [4]?
Answer: 40.2 µg/mL and > 100 µM

Question: What about the GI50 [5] of the same compound?
Answer: 30.2 µg/mL

Question: What about the TGI [5] of the same compound?
Answer: 64.6 µg/mL and > 100 µM

Question: What about the TGI [6] of the same compound?
Answer: > 100 µM

Question: What about the GI50 [7] of the same compound?
Answer: 20.1 µg/mL

Question: What about the TGI [7] of the same compound?
Answer: 36.4 µg/mL and > 100 µM

Question: What about the GI50 [8] of the same compound?
Answer: 13.1 µg/mL

Question: What about the TGI [9] of the same compound?
Answer: > 100 µM

Question: And the GI50 [10]?
Answer: 38.9 µg/mL

Question: And the TGI [10]?
Answer: > 100 µM

Question: Which GI50 [1] does the source give for CN1CC[C@@H](c2c(O)cc(O)c3c(=O)cc(-c4ccc(C(F)(F)F)cc4Cl)oc23)[C@@H]1CO here?
Answer: 3.21 µM

Question: And the TGI [1]?
Answer: 17 µM

Question: What about the GI50 [2] of the same compound?
Answer: 14.5 µM

Question: And the TGI [2]?
Answer: 38.3 µM

Question: And the GI50 [3]?
Answer: 10.5 µM

Question: What about the TGI [3] of the same compound?
Answer: 77.2 µM

Question: And the GI50 [5]?
Answer: 8.37 µM

Question: And the TGI [5]?
Answer: 33.6 µM

Question: What about the GI50 [6] of the same compound?
Answer: 18.2 µM

Question: And the TGI [6]?
Answer: 42 µM

Question: And the GI50 [7]?
Answer: 13.7 µM

Question: And the TGI [7]?
Answer: 33.1 µM

Question: What about the GI50 [8] of the same compound?
Answer: 17.4 µM

Question: And the TGI [8]?
Answer: 37.3 µM

Question: What about the GI50 [9] of the same compound?
Answer: 17.8 µM

Question: And the TGI [9]?
Answer: 33.8 µM

Question: What about the GI50 [10] of the same compound?
Answer: 14.4 µM

Question: What about the TGI [10] of the same compound?
Answer: 32.2 µM

Question: For C=CCc1ccc(O)c(-c2ccc(O)c(CC=C)c2)c1, which GI50 [1] is on record?
Answer: 14.8 µM

Question: What about the TGI [1] of the same compound?
Answer: > 100 µM

Question: What about the GI50 [2] of the same compound?
Answer: 8.06 µM

Question: What about the TGI [2] of the same compound?
Answer: 26.2 µM

Question: And the GI50 [3]?
Answer: 18.4 µM

Question: What about the TGI [3] of the same compound?
Answer: 36.9 µM

Question: What about the GI50 [4] of the same compound?
Answer: 4.94 µM

Question: What about the TGI [4] of the same compound?
Answer: > 39.9 µM

Question: What about the GI50 [5] of the same compound?
Answer: 9.66 µM

Question: And the TGI [5]?
Answer: > 52.3 µM

Question: What about the GI50 [6] of the same compound?
Answer: 32.8 µM

Question: And the TGI [6]?
Answer: > 60.9 µM

Question: What about the GI50 [7] of the same compound?
Answer: 18.4 µM

Question: And the TGI [7]?
Answer: 36.5 µM

Question: What about the GI50 [8] of the same compound?
Answer: 10.4 µM

Question: What about the TGI [8] of the same compound?
Answer: 26.2 µM

Question: And the GI50 [9]?
Answer: 21.4 µM

Question: And the TGI [9]?
Answer: 48.4 µM

Question: What about the GI50 [10] of the same compound?
Answer: 16.6 µM

Question: And the TGI [10]?
Answer: 31 µM
